Patent US20170121344A1 (Siga Technologies, Inc., priority 2009, published 2017)
Like-named read-outs stand apart in the source and are kept apart here.

Test system: Dengue-2 (Strain New Guinea C)
Experiment: Viral yield assay against Dengue-2 in Vero cells
Format: cell-based, Dengue virus
Method in brief: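 Virus yield, titered on Vero cells from cultures harvested at 48 h post infection, gave the EC50. Cultures were infected at MOI 0.1 with dengue-2 and treated with compound or DMSO at 37° C. DENV-1 and DENV-4 were determined similarly.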

[1] = Dengue virus, Vero cells, MOI 0.1, harvested 48 hours post infection, read-out: Activity (EC50 class) against Dengue-2 Virus in Vero cells
[2] = Dengue virus, DENV2, viral yield assay, Vero cells, MOI 0.1, 48 hours post infection, read-out: Activity (EC50 in μM) DENV-2
[3] = Dengue virus, DENV2, Vero cells, read-out: Activity (EC50 in μM) DENV-2

SMILES: CC(C)NC(=O)c1sc2nc3c(c(-c4cccs4)c2c1N)CN(C)CC3 [Compound 273, 3-Amino-6-methyl-4-thiophen-2-yl-5,6,7,8-tetrahydro-thieno[2,3-b][1,6]naphthyridine-2-carboxylic acid isopropylamide]
- EC50 (Dengue virus, Vero, 48 h, read-out: Activity (EC50 class) against Dengue-2 Virus in Vero cells): > 25 µM

SMILES: COc1cc2c(cc1OC)CN(C(=O)c1sc3nc4c(cc3c1N)CN(C)CC4)CC2 [Compound 274, (3-Amino-6-methyl-5,6,7,8-tetrahydro-thieno[2,3-b][1,6]naphthyridin-2-yl)-(6,7-dimethoxy-3,4-dihydro-1H-isoquinolin-2-yl)-methanone]
- EC50 [1]: > 25 µM

SMILES: CCOC(=O)N1CCC(NC(=O)c2sc3nc4c(cc3c2N)CN(CC)CC4)CC1 [Compound 275]
- EC50 [1]: > 25 µM

SMILES: CCN(CC)c1ccc(NC(=O)c2sc3nc4c(cc3c2N)CN(C)CC4)cc1 [Compound 276, 3-Amino-6-methyl-5,6,7,8-tetrahydro-thieno[2,3-b][1,6]naphthyridine-2-carboxylic acid (4-diethylamino-phenyl)-amide]
- EC50 [1]: > 25 µM

SMILES: CN1CCc2nc3sc(C(=O)Nc4c(F)cccc4F)c(N)c3cc2C1 [Compound 277, 3-Amino-6-methyl-5,6,7,8-tetrahydro-thieno[2,3-b][1,6]naphthyridine-2-carboxylic acid (2,6-difluoro-phenyl)-amide]
- EC50 [1]: > 25 µM

SMILES: CN1CCc2nc3sc(C(=O)Nc4nncs4)c(N)c3cc2C1 [Compound 278, 3-Amino-6-methyl-5,6,7,8-tetrahydro-thieno[2,3-b][1,6]naphthyridine-2-carboxylic acid [1,3,4]thiadiazol-2-ylamide]
- EC50 [1]: > 25 µM

SMILES: COc1ccc(CNC(=O)c2sc3nc4c(cc3c2N)CN(C)CC4)cc1OC [Compound 279, 3-Amino-6-methyl-5,6,7,8-tetrahydro-thieno[2,3-b][1,6]naphthyridine-2-carboxylic acid 3,4-dimethoxy-benzylamide]
- EC50 [1]: > 25 µM

SMILES: CN1CCc2nc3sc(C(=O)Nc4cccc(C(F)(F)F)c4)c(N)c3cc2C1 [Compound 280, 3-Amino-6-methyl-5,6,7,8-tetrahydro-thieno[2,3-b][1,6]naphthyridine-2-carboxylic acid (3-trifluoromethyl-phenyl)-amide]
- EC50 [1]: > 25 µM

SMILES: Nc1c(C(=O)NC2CCCCC2)sc2nc3c(cc12)CCCCC3 [Compound 281, 3-amino-N-cyclohexyl-6,7,8,9-tetrahydro-5H-cyclohepta[b]thieno [3,2-e]pyridine-2-carboxamide]
- EC50 [2]: 5 to 25 µM

SMILES: CCCCNC(=O)c1sc2nc3c(cc2c1N)CCCCC3 [Compound 282, 3-amino-N-butyl-6,7,8,9-tetrahydro-5H-cyclohepta [b]thieno[3,2-e]pyridine-2-carboxamide]
- EC50 [2]: 5 to 25 µM

SMILES: CC(C)(C)NC(=O)c1sc2nc3c(cc2c1N)CCCCC3 [Compound 283, 3-amino-N-(tert-butyl)-6,7,8,9-tetrahydro-5H-cyclohepta[b]thieno [3,2-c]pyridine-2-carboxamide]
- EC50 [2]: < 5 µM

SMILES: Cc1cnc2sc(C(=O)Nc3nnc(-c4ccccc4)s3)c(N)c2c1 [Compound 286, 3-amino-5-methyl-N-(5-phenyl-1,3,4-thiadiazol-2-yl)thieno[2,3-b]pyridine-2-carboxamide]
- EC50 [2]: < 5 µM

SMILES: COc1ccnc2sc(C(=O)Nc3nnc(-c4ccccc4)s3)c(N)c12 [Compound 287, 3-amino-4-methoxy-N-(5-phenyl-1,3,4-thiadiazol-2-yl)thieno[2,3-b]pyridine-2-carboxamide]
- EC50 [2]: 5 to 25 µM

SMILES: Nc1cnc2sc(C(=O)Nc3nnc(-c4ccccc4)s3)c(N)c2c1 [Compound 290, 3,5-diamino-N-(5-phenyl-1,3,4-thiadiazol-2-yl)thieno[2,3-b]pyridine-2-carboxamide]
- EC50 [2]: < 5 µM

SMILES: Nc1c(C(=O)Nc2nnc(-c3ccccc3)s2)sc2ncc(C(=O)O)cc12 [Compound 291, 3-amino-2-[(5-phenyl-1,3,4-thiadiazol-2-yl)carbamoyl]thieno[2,3-b]pyridine-5-carboxylic acid]
- EC50 [2]: 5 to 25 µM

SMILES: CN(C)CC(=O)Nc1c(C(=O)Nc2cccc(C(F)(F)F)c2)sc2nc(-c3cccs3)ccc12 [Compound 308, 3-[[2-(dimethylamino)acetyl]amino]-6-(2-thienyl)-N-[3-(trifluoromethyl)phenyl]thieno[2,3-b]pyridine-2-carboxamide]
- EC50 [3]: < 5 µM

SMILES: NCCCNc1c(C(=O)Nc2nnc(-c3ccccc3)s2)sc2nc3c(cc12)CCCCC3 [Compound 313, 3-((3-aminopropyl)amino)-N-(5-phenyl-1,3,4-thiadiazol-2-yl)-6,7,8,9-tetrahydro-5H-cyclohepta[b]thieno[3,2-e]pyridine-2-carboxamide]
- EC50 [3]: < 5 µM

SMILES: CC(=O)N(CCN)c1c(C(=O)Nc2nnc(-c3ccccc3)s2)sc2nc3c(cc12)CCCCC3 [Compound 314, 3-(N-(2-amino-ethyl)acetamido)-N-(5-phenyl-1,3,4-thiadiazol-2-yl)-6,7,8,9-tetrahydro-5H-cylcohepta[b]thieno[3,2-e]pyridine-2-carboxamide]
- EC50 (Vero cells, read-out: Activity (EC50 in μM) DENV-2): < 5 µM

SMILES: CN(C)CCNc1c(C(=O)Nc2nnc(-c3ccccc3)s2)sc2nc3c(cc12)CCCCC3 [Compound 315, 3-((2-(dimethylamino)ethyl)amino)-N-(5-phenyl-1,3,4-thiadiazol-2-yl)-6,7,8,9-tetrahydro-5H-cyclohepta[b]thieno [3,2-e]pyridine-2-carboxamide]
- EC50 [3]: < 5 µM

SMILES: O=c1[nH]c2c(sc3nc(-c4cccs4)ccc32)c(=O)n1-c1cccc(C(F)(F)F)c1 [Compound 316, 7-(thiophen-2-yl)-3-(3-(trifluoromethyl)phenyl)pyrido[3′,2′:4,5]thieno[3,2-d]pyrimidine-2,4(1H,3H)-dione]
- EC50 [2]: < 5 µM

SMILES: Nc1c(C(=O)Nc2cccc(C(F)(F)F)c2)sc2nc(C(F)(F)F)ccc12 [Compound 317, 3-amino-6-(trifluoromethyl)-N-[3-(trifluoromethyl)phenyl]thieno[2,3-b]pyridine-2-carboxamide]
- EC50 [2]: < 5 µM

SMILES: Cc1nc(C)c(-c2ccc3c(N)c(C(=O)Nc4cccc(C(F)(F)F)c4)sc3n2)s1 [Compound 318, 3-amino-6-(2,4-dimethylthiazol-5-yl)-N-[3-(trifluoromethyl)phenyl]thieno[2,3-b]pyridine-2-carboxamide]
- EC50 [2]: < 5 µM

SMILES: N=C(Nc1cccc(C(F)(F)F)c1)c1sc2nc(-c3cccs3)ccc2c1N [Compound 319, 3-amino-6-(2-thienyl)-N-[3-(trifluoromethyl)phenyl]thieno[2,3-b]pyridine-2-carboxamidine]
- EC50 [2]: < 5 µM

SMILES: O=C1CN(c2cccc(C(F)(F)F)c2)C(=O)c2sc3nc(-c4cccs4)ccc3c2N1 [Compound 320]
- EC50 [2]: < 5 µM

SMILES: CN(C)CCN(C(=O)c1sc2nc(-c3cccs3)ccc2c1N)c1cccc(C(F)(F)F)c1 [Compound 323, 3-amino-N-(2-dimethylaminoethyl)-6-(2-thienyl)-N-[3-(trifluoromethyl)phenyl]thieno[2,3-b]pyridine-2-carboxamide]
- EC50 [2]: < 5 µM

SMILES: CC(=O)Nc1nc2sc(C(=O)Nc3ccc(Br)cc3)c(N)c2c(-c2ccco2)c1C#N [Compound 324, 6-acetamido-3-amino-N-(4-bromophenyl)-5-cyano-4-(2-furyl)thieno[2,3-b]pyridine-2-carboxamide]
- EC50 [2]: < 5 µM

SMILES: Nc1c(C(=O)N(CC(=O)O)c2cccc(C(F)(F)F)c2)sc2nc(-c3cccs3)ccc12 [Compound 326]
- EC50 [2]: < 5 µM

SMILES: Nc1c(C(=O)Nc2ccc(C(=O)O)cc2)sc2nc(-c3ccc(Cl)cc3)ccc12 [Compound 334, 4-[[3-amino-6-(4-chlorophenyl)thieno [2,3-b]pyridine-2-carbonyl]amino] benzoic acid]
- EC50 [2]: < 5 µM

SMILES: Nc1c(C(=O)Nc2ccc(S(=O)(=O)O)cc2)sc2nc(-c3ccc(Cl)cc3)ccc12 [Compound 346, 4-[[3-amino-6-(4-chlorophenyl)thieno[2,3-b]pyridine-2-carbonyl]amino]benzenesulfonic acid]
- EC50 [2]: < 5 µM

SMILES: Nc1c(C(=O)Nc2cc(Cl)ccc2Cl)sc2nc(-c3ccc(Cl)cc3)ccc12 [Compound 347, 3-amino-6-(4-chlorophenyl)-N-(2,5-dichloro-phenyl)thieno [2,3-b]pyridine-2-carboxamide]
- EC50 [2]: < 5 µM

SMILES: Cc1ccc(NC(=O)c2sc3nc(-c4ccc(Cl)cc4)ccc3c2N)cc1C [Compound 348, 3-amino-6-(4-chlorophenyl)-N-(3,4-dimethyl-phenyl)thieno [2,3-b]pyridine-2-carboxamide]
- EC50 [2]: < 5 µM

SMILES: Nc1c(C(=O)Nc2ccc(C(=O)C(F)(F)F)cc2)sc2nc(-c3ccc(Cl)cc3)ccc12 [Compound 351, 3-amino-6-(4-chlorophenyl)-N-[4-(2,2,2-tri-fluoroacetyl)phenyl]thieno [2,3-b]pyridine-2-carboxamide]
- EC50 [2]: < 5 µM

SMILES: COc1cccc(-c2ccc3c(N)c(C(=O)N(CCC(=O)O)c4ccc(OC(F)(F)F)cc4)sc3n2)c1 [Compound 354, 3-[N-[3-amino-6-(3-methoxy-phenyl)thieno[2,3-b]pyridine-2-carbonyl]-4-(tri-fluoro-methoxy)anili-no]propanoic acid]
- EC50 [2]: 5 to 25 µM

SMILES: Nc1c(C(=O)N(CCC(=O)O)c2ccc(Cl)cc2)sc2nc(-c3ccc(Cl)cc3)ccc12 [Compound 355, 3-(N-[3-amino-6-(4-chloro-phenyl)thieno [2,3-b]pyridine-2-carbonyl]-4-chloro-anilino) propanoic acid]
- EC50 [2]: < 5 µM

SMILES: Nc1c(C(=O)Nc2ccc(O)cc2)sc2nc(-c3ccc(Cl)cc3)ccc12 [Compound 356, 3-amino-6-(4-chlorophenyl)-N-(4-hydroxy-phenyl) thieno [2,3-b]pyridine-2-carboxamide]
- EC50 [2]: 5 to 25 µM

SMILES: Nc1c(C(=O)Nc2ccncc2)sc2nc(-c3cccs3)ccc12 [Compound 357, 3-amino-N-(4-pyridyl)-6-(2-thienyl)thieno [2,3-b]pyridine-2-carboxamide]
- EC50 [2]: < 5 µM
